Columns and labels:
[1] = tested on: ovalbumin sensitized female Balb/C mice; test: Ovalbumin induced inflammation in ovalbumin sensitized mice (Compound 52 and prednisolone), BAL cell counts; assay type: in vivo; settings: 1 mg/Kg p.o. (combination: 1 mg/Kg of each compound); BAL 24 hours after ovalbumin challenge
Description: Sensitized mice were randomly assigned to different treatment groups. […] Animals were administered Compound 52 orally 24 hrs before first ovalbumin challenge and 2 hrs before ovalbumin challenge from Day-11 to 13. Animals were administered Prednisolone orally 24 hrs before first ovalbumin challenge and 2 hrs before ovalbumin challenge from Day-11 to 13. The animals were divided into groups as per Table 2.
Broncho Alveolar Lavage (BAL) was performed at 24 hours after challenge with ovalbumin. Animals were anesthetized with an overdose of urethane, trachea was exposed and BAL was performed 4 times using 0.3 mL PBS. All aspirates of BAL were pooled and total number of cells determined using a hemocytometer. The BAL was centrifuged, and the cell pellet was used for preparation of smears. Slides were stained with Giemsa stain and a differential cell count of 500 cells based on standard morphology was performed manually.
Calculations: The total number of eosinophils in each BAL sample was calculated using the formula: […]
Percent inhibition of eosinophils was calculated using the following formula: […]

[2] = molecular target: T1, human TRPA1 receptor (Homo sapiens, UniProt O75762); test: Inhibition of AITC induced cellular uptake of radioactive calcium in human TRPA1 expressing CHO cells; assay type: cell-based; settings: read-out: hTRPA1 IC50 values
T1 construct: expressed in transfected cells; host or cells: CHO cells
Description: Test compound solution is prepared in a suitable solvent. Human TRPA1 expressing CHO cells are grown in suitable medium. Cells are treated with test compounds followed by addition of AITC. Cells are washed, lysed and the radioactivity in the lysate is measured in Packard Top count after addition of liquid scintillant.
The concentration response curves for compounds are plotted as a % of maximal response obtained in the absence of test antagonist, and the IC50 values are calculated from such concentration response curve by nonlinear regression analysis using GraphPad PRISM software.

T1 sequence (O75762 whole entry): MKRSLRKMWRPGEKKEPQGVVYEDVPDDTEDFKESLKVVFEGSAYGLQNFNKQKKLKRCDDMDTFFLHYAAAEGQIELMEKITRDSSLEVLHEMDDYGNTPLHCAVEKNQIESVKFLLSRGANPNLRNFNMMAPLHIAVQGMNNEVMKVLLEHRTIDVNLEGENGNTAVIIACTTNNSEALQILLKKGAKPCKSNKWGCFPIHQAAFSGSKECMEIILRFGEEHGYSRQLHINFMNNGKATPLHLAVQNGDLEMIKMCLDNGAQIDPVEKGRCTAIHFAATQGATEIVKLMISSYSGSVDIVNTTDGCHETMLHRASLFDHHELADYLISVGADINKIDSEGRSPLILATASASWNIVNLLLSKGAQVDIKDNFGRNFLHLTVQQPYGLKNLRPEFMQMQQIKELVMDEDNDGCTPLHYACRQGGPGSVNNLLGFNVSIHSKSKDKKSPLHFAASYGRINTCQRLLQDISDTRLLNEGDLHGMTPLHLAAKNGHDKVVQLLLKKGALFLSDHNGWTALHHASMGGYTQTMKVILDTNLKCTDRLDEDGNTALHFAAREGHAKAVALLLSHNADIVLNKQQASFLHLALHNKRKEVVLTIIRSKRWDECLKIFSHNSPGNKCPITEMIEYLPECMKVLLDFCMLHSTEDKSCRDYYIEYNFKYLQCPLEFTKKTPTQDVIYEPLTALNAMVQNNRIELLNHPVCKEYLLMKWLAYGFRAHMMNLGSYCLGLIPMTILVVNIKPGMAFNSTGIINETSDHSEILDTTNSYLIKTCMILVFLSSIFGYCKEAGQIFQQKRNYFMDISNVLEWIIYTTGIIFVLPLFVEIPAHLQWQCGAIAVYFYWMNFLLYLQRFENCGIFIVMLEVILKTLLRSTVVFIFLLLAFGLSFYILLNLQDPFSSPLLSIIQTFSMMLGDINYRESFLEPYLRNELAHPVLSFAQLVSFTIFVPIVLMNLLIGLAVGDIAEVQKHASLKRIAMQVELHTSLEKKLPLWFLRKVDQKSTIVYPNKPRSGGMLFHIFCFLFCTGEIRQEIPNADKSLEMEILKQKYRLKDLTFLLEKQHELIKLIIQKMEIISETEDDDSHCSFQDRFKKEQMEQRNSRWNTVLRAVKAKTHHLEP

Row | IC50 [2] | SMILES | % Inhibition of cell in BALf [1] | % Inhibition of eosinophils in BALf [1] | Total cell number in BALf [1] | Total eosinophils in BALf [1]
1 | – | Cn1c(=O)c2c(CC(=O)Nc3nc(-c4ccc(F)c(C(F)(F)F)c4F)cs3)csc2n(C)c1=O [Compound 52] | 10% | 21% | 12.2 ± 0.5 | 5.8 ± 0.5
2 | 21.9 nM | CC(C)C(N)C(=O)OCn1c(-c2ccc(F)c(C(F)(F)F)c2F)csc1=NC(=O)Cc1csc2c1c(=O)n(C)c(=O)n2C (stereo not drawn) [Compound 97] | – | – | – | –
3 | – | C[C@]12C=CC(=O)C=C1CC[C@@H]1[C@@H]2[C@@H](O)C[C@@]2(C)[C@H]1CC[C@]2(O)C(=O)CO [Prednisolone, reference compound] | 21% | 24% | 10.8 ± 1.0 | 5.6 ± 0.7
